Data: US20250019373A1, “ARYL OR HETEROARYL DERIVATIVE, AND PHARMACEUTICAL COMPOSITION COMPRISING SAME AS ACTIVE INGREDIENT FOR PREVENTION OR TREATMENT OF KINASE-RELATED DISEASES” (VORONOI INC., priority 2021, published 2025)

System: HT-29 cells
Assay: Cell necrosis inhibitory activity under necroptosis-inducing conditions (TNF-α, Z-VAD-FMK, LCL161) in HT-29 cells, Cell Titer-Glo
Type: cell-based
Conditions: Homo sapiens, 100 ng/mL TNF-α + 25 μM Z-VAD-FMK + Smac mimetic LCL161, 24 hours, cell viability
Experimental: To evaluate the cell necrosis inhibitory activity of the compound according to the present invention, an experiment was conducted as follows.
To evaluate the efficacy of inhibiting cell necrosis under TNF-α-mediated cell death-inducing conditions, a HT-29 cell line (Korean Cell Line Bank Accession No. #30038) was cultured in RPMI-1640 (HyClone #SH3027.01) medium containing 10% fetal bovine serum (FBS) and 1% penicillin/streptomycin to analyze cell viability. More specifically, for testing, the cell line was seeded in a 96-well flat bottom plate (Corning #3903) at a concentration of 10,000 cells/well and incubated at 37° C. under a 5% CO2 condition for 24 hours. Each well was treated with 100 ng/mL TNF-α, 25 μM pan-caspase inhibitor (Z-VAD-FMK, Selleckchem #S8102), and 10 µM Smac mimetic LCL161 (Selleckchem #S7009) and allowed to react for 10 minutes. The compounds of Examples were treated at 11 concentrations (the highest concentration being 0.1 μM or 1 μM) with a 3-fold concentration gradient, and as a control, dimethyl sulfoxide (DMSO) was treated at a concentration of 0.05% (v/v), which is the same as those when the compounds were treated. The treated cells were incubated for 24 hours. To confirm the degree of cell viability, 100 μL of Cell Titer-Glo (Promega #G7573) was added to the medium of the cultured cells and cultured for additional 10 minutes, and then luminescence was measured using a microplate reader. Based on the […] of control cells that were not treated with the compound, the degree of cell necrosis inhibitory activity was calculated according to the treatment concentration of each compound. Here, the concentration at which the cell necrosis inhibitory activity was 50% was determined as an EC50 (nM) value and calculated using Prism (ver. 8.4.3 #GraphPad) software.

Row | Structure (SMILES) | EC50 [nM]
1 | Cc1ncc(-c2ccc3nc(N)nn3c2)cc1NC(=O)N1OCC[C@H]1c1cc(F)cc(Cl)c1 [Example 52, (S)-N-(5-(2-amino-[1,2,4]triazolo[1,5-a]pyridin-6-yl)-2-methylpyridin-3-yl)-3-(3-chloro-5-fluorophenyl)isoxazolidine-2-carboxamide] | 2.8
2 | Cc1ncc(-c2ccc3nc(N)nn3c2)cc1NC(=O)N1OCC[C@H]1c1ccc(Cl)cc1 [Example 69, (S)-N-(5-(2-amino-[1,2,4]triazolo[1,5-a]pyridin-6-yl)-2-methylpyridin-3-yl)-3-(4-chlorophenyl)isoxazolidine-2-carboxamide] | 0.4
3 | Cc1ccc(-c2ccc3nccn3c2)cc1NC(=O)N1OCC[C@H]1c1ccccc1 [Example 113, (S)-N-(5-(imidazo[1,2-a]pyridin-6-yl)-2-methylphenyl)-3-phenylisoxazolidine-2-carboxamide] | 2.4
4 | C#Cc1cnc2ccc(-c3ccc(C)c(NC(=O)N4OCC[C@H]4c4ccccc4)c3)cn12 [Example 116, (S)-N-(5-(3-ethynylimidazo[1,2-a]pyridin-6-yl)-2-methylphenyl)-3-phenylisoxazolidine-2-carboxamide] | 1
5 | CNC(=O)c1n[nH]c2cc(-c3cncc(NC(=O)N4OCC[C@H]4c4ccccc4)c3)ccc12 [Example 19, (S)-N-(5-(3-(methylcarbamoyl)-1H-indazol-6-yl)pyridin-3-yl)-3-phenylisoxazolidine-2-carboxamide] | 1
6 | Cc1ccc(-c2ccn3nc(N)cc3c2)cc1NC(=O)N1Oc2ccccc2[C@H]1c1ccccc1 [Example 139, (R)-N-(5-(2-aminopyrazolo[1,5-a]pyridin-5-yl)-2-methylphenyl)-3-phenylbenzo[d]isoxazole-2(3H)-carboxamide] | 2.2
7 | Cc1ccc(-c2ccc3nc(N)nn3c2)cc1NC(=O)N1OCC[C@H]1c1ccc(C#N)cc1 [Example 91, (S)-N-(5-(2-amino-[1,2,4]triazolo[1,5-a]pyridin-6-yl)-2-methylphenyl)-3-(4-cyanophenyl)isoxazolidine-2-carboxamide] | 0.9
8 | Cc1ccc(-c2ccc3c(N)ncnn23)cc1NC(=O)N1OCC[C@H]1c1ccccc1 [Example 100, (S)-N-(5-(4-aminopyrrolo[2,1-f][1,2,4]triazin-7-yl)-2-methylphenyl)-3-phenylisoxazolidine-2-carboxamide] | 4.6
9 | Cc1ncc(-c2ccc3nc(N)nn3c2)cc1NC(=O)N1OCC[C@H]1c1ccc(C#N)cc1 [Example 68, (S)-N-(5-(2-amino-[1,2,4]triazolo[1,5-a]pyridin-6-yl)-2-methylpyridin-3-yl)-3-(4-cyanophenyl)isoxazolidine-2-carboxamide] | 3.9
10 | COc1ccc(-c2ccc3nc(NC(C)=O)cn3n2)cc1NC(=O)N1OCC[C@H]1c1ccccc1 [Example 8, (S)-N-(5-(2-acetamidoimidazo[1,2-b]pyridazin-6-yl)-2-methoxyphenyl)-3-phenylisoxazolidine-2-carboxamide] | 0.4
11 | CNC(=O)c1n[nH]c2cc(-c3ccc(OC)c(NC(=O)N4OCC[C@H]4c4ccccc4)c3)ccc12 [Example 24, (S)-N-(2-methoxy-5-(3-(methylcarbamoyl)-1H-indazol-6-yl)phenyl)-3-phenylisoxazolidine-2-carboxamide] | 0.4
12 | Cc1ncc(-c2ccc3nc(N)nn3c2)cc1NC(=O)N1OCC[C@H]1c1ccc(F)c(F)c1 [Example 55, (S)-N-(5-(2-amino-[1,2,4]triazolo[1,5-a]pyridin-6-yl)-2-methylpyridin-3-yl)-3-(3,4-difluorophenyl)isoxazolidine-2-carboxamide] | 0.6
13 | Cc1ccc(-c2ccn3nc(N)cc3c2)cc1NC(=O)N1CCO[C@@H](c2ccccc2)C1 [Example 137, (S)-N-(5-(2-aminopyrazolo[1,5-a]pyridin-5-yl)-2-methylphenyl)-2-phenylmorpholine-4-carboxamide] | 49.2
14 | Cc1ncc(-c2ccc3nc(N)nn3c2)cc1NC(=O)N1OCC[C@H]1c1cccc(C#N)c1 [Example 46, (S)-N-(5-(2-amino-[1,2,4]triazolo[1,5-a]pyridin-6-yl)-2-methylpyridin-3-yl)-3-(3-cyanophenyl)isoxazolidine-2-carboxamide] | 19.4
15 | O=C(Nc1cn2nc(-c3cccc(NC(=O)N4OCC[C@H]4c4ccccc4)c3)ccc2n1)C1CC1 [Example 2, (S)-N-(3-(2-(cyclopropanecarboxamido)imidazo[1,2-b]pyridazin-6-yl)phenyl)-3-phenylisoxazolidine-2-carboxamide] | 0.2
16 | Cc1ccc(-c2ccc3nnc(C(F)(F)F)n3n2)cc1NC(=O)N1OCC[C@H]1c1ccccc1 [Example 108, (S)-N-(2-methyl-5-(3-(trifluoromethyl)-[1,2,4]triazolo[4,3-b]pyridazin-6-yl)phenyl)-3-phenylisoxazolidine-2-carboxamide] | 29.8
17 | Cc1cc(F)c(-c2ccc3nc(N)nn3c2)cc1NC(=O)N1OCC[C@H]1c1ccccc1 [Example 34, (S)-N-(5-(2-amino-[1,2,4]triazolo[1,5-a]pyridin-6-yl)-4-fluoro-2-methylphenyl)-3-phenylisoxazolidine-2-carboxamide] | 0.5
18 | COc1ncc(-c2ccc3nc(N)cn3n2)cc1NC(=O)N1OCC[C@H]1c1ccccc1 [Example 7, (S)-N-(5-(2-aminoimidazo[1,2-b]pyridazin-6-y1)-2-methoxypyridin-3-yl)-3-phenylisoxazolidine-2-carboxamide] | 40
19 | Cc1ccc(-c2ccc3nc(NC(=O)C4CC4)sc3n2)cc1NC(=O)N1OCC[C@H]1c1ccc(C#N)cc1 [Example 94, (S)-3-(4-cyanophenyl)-N-(5-(2-(cyclopropanecarboxamido)thiazolo[5,4-b]pyridin-5-yl)-2-methylphenyl)isoxazolidine-2-carboxamide] | 0.3
20 | Nc1nc2cc(-c3ccc(Cl)c(NC(=O)N4OCC[C@H]4c4ccccc4)c3)ccn2n1 [Example 124, (S)-N-(5-(2-amino-[1,2,4]triazolo[1,5-a]pyridin-7-yl)-2-chlorophenyl)-3-phenylisoxazolidine-2-carboxamide] | 0.2
21 | Cc1ccc(-c2ccc3nc(N)nn3c2)cc1NC(=O)N1OCC[C@H]1c1ccc(Cl)cc1 [Example 67, (S)-N-(5-(2-amino-[1,2,4]triazolo[1,5-a]pyridin-6-yl)-2-methylphenyl)-3-(4-chlorophenyl)isoxazolidine-2-carboxamide] | 0.4
22 | CNC(=O)c1n[nH]c2cc(-c3cnc(OC)c(NC(=O)N4OCC[C@H]4c4ccccc4)c3)ccc12 [Example 22, (S)-N-(2-methoxy-5-(3-(methylcarbamoyl)-1H-indazol-6-yl)pyridin-3-yl)-3-phenylisoxazolidine-2-carboxamide] | 0.3
23 | Cc1ccc(-c2ccn3nc(N)nc3c2)cc1NC(=O)N1OCC[C@H]1c1ccccc1 [Example 61, (S)-N-(5-(2-amino-[1,2,4]triazolo[1,5-a]pyridin-7-yl)-2-methylphenyl)-3-phenylisoxazolidine-2-carboxamide] | 0.2
24 | Cc1ncc(-c2ccc3nc(NC(=O)C4CC4)cn3n2)cc1NC(=O)N1OCC[C@H]1c1ccccc1 [Example 10, (S)-N-(5-(2-(cyclopropanecarboxamido)imidazo[1,2-b]pyridazin-6-yl)-2-methylpyridin-3-yl)-3-phenylisoxazolidine-2-carboxamide] | 0.3
25 | Cc1ncc(-c2ccc3nc(N)nn3c2)cc1NC(=O)N1OCC[C@H]1c1cc(F)cc(C(F)(F)F)c1 [Example 43, (S)-N-(5-(2-amino-[1,2,4]triazolo[1,5-a]pyridin-6-yl)-2-methylpyridin-3-yl)-3-(3-fluoro-5-(trifluoromethyl)phenyl)isoxazolidine-2-carboxamide] | 7.3
26 | Cc1ncc(-c2ccc3nc(N)nn3c2)cc1NC(=O)N1OCC[C@H]1c1ccc(Cl)c(C(F)(F)F)c1 [Example 44, (S)-N-(5-(2-amino-[1,2,4]triazolo[1,5-a]pyridin-6-yl)-2-methylpyridin-3-yl)-3-(4-chloro-3-(trifluoromethyl)phenyl)isoxazolidine-2-carboxamide] | 4.1
27 | COc1ccc(-c2ccc3nnn(C(C)C)c3c2)cc1NC(=O)N1OCC[C@H]1c1ccccc1 [Example 15, (S)-N-(5-(1-isopropyl-1H-benzo[d][1,2,3]triazol-6-yl)-2-methoxyphenyl)-3-phenylisoxazolidine-2-carboxamide] | 23.9
28 | COc1ncc(-c2csc3c(N)ncnc23)cc1NC(=O)N1OCC[C@H]1c1ccccc1 [Example 128, (S)-N-(5-(4-aminothieno[3,2-d]pyrimidine-7-yl)-2-methoxypyridin-3-yl)-3-phenylisoxazolidine-2-carboxamide] | 38.2
29 | Cc1ccc(-c2ccc3nc(NC(=O)C4CC4)sc3c2)cc1NC(=O)N1OCC[C@H]1c1ccc(C#N)cc1 [Example 93, (S)-3-(4-cyanophenyl)-N-(5-(2-(cyclopropanecarboxamido)benzo[d]thiazol-6-yl)-2-methylphenyl)isoxazolidine-2-carboxamide] | 0.2
